# Article PMC10288505, “Photoswitchable Calixarene Activators for Controlled Peptide Transport across Lipid Membranes” (Journal of the American Chemical Society, 2023)
# Experiments:
# R8 = test: Indicator displacement assay with host:LCG reporter pair, guest R8; format: binding; conditions: association constant, competitive dye displacement with LCG, 5 mM phosphate buffer pH 7.3; only the lower limit can be estimated
# Description: (§1) The binding affinity of the anionic calixarene activators toward cationic peptides was investigated using a small library of highly hydrophilic oligoarginines, from 3 to 8 residues. These peptides are not able to spontaneously transverse zwitterionic artificial membranes in vesicle assays, which allows the accurate evaluation of the calixarenes 1 and 2 as counterion activators without interferences from the transport of the peptide alone.[43]−[45] First, the formation of host–guest complexes between 1/2 and the selected peptides was verified by indicator displacement assays using lucigenin (LCG) as the fluorescent indicator.[46] As previously reported for other sulfonatocalixarene derivatives,[46] the formation of host–guest binding pairs between calixarenes 1/2 in the E- and Z-forms and LCG results in significant static fluorescence quenching (see Figure 2A and Figures S26 and S27). Quantitative analysis of the fluorescence titration data using a 1:1 host:guest binding model allows the determination of the respective binding constants (K) reported in Table 1. As can be observed, both 1/2 display high affinity for the LCG dye, on the 10^7 M^–1 range, which seems to be independent of the nature and conformation of the azobenzene arm. […] The host:LCG binding pairs were then employed in the above-mentioned indicator displacement assays to investigate the binding affinity of oligoarginines toward 1 and 2 (see Figure 2B and Figures S29–S33).
# (§2) The binding affinities of the counterion activators and peptide complexes were analyzed by indicator displacement assays. […] Firstly, the affinity for LCG was calculated for each of the activators, by titrations followed by fluorescence spectroscopy leading to almost full quenching of the emission. […]
# (§3) Figure S26 - Fluorescence titration of the lucigenin dye with increasing concentrations of A) E-1 and B) Z–1 in water (5 mM phosphate buffer pH 7.3). […]
# R3 = test: Indicator displacement assay with host:LCG reporter pair, guest R3; format: binding; conditions: association constant, competitive dye displacement with LCG, 5 mM phosphate buffer pH 7.3, mean ± SD of triplicate
# Description: as §1
# (§4) The binding affinities of the counterion activators and peptide complexes were analyzed by indicator displacement assays. The fluorescent dye chosen for these experiments was lucigenin (LCG) due to its complex with the receptor SC4 being well characterized and due to the high variation of emission between its bound and free form. Firstly, the affinity for LCG was calculated for each of the activators, by titrations followed by fluorescence spectroscopy leading to almost full quenching of the emission. For the competitive assays, a concentration of LCG and activator was chosen in order to have approximately 90% of complexed dye and that mixture was then titrated with each of the peptides, leading to the regaining of emission when LCG was release from the complex.
# (§5) Figure S26 - Fluorescence titration of the lucigenin dye with increasing concentrations of A) E-1 and B) Z–1 in water (5 mM phosphate buffer pH 7.3). LCG concentration was fixed 0.2 µM in all experiments, except for the first E-1 titrations were [LCG]
# (§6) (1 picture or pasted object on this page, not shown here)
# (§7) Figure S29 - Indicator displacement titration of the several oligoarginines A) R3 B) R4 C) R6 and D) R8, using SC4:LCG as the reporter pair (5 mM phosphate buffer pH 7.3). LCG and SC4 concentrations were fixed at A) 0.22 and 0.50 µM, for all three replicates, B) 0.22 and 4.7 µM for the first titration and 0.22 and 4.3 µM for the remaining two replicates, C) 0.22 and 0.45 µM and 1.1 and 0.85 µM and D) 0.28 and 0.43 µM and 1.1 and 0.85 µM, respectively, from left to right.
# (§8) Figure S30 - Indicator displacement titration of the several oligoarginines A) R3 B) R4 C) R6 and D) R8, using E-1:LCG as the reporter pair (5 mM phosphate buffer pH 7.3) LCG and E-1 concentrations were fixed at A) 0.11 and 0.25 µM, for all three replicates, B) 0.22 and 0.5 µM, for the first two titrations and 0.22 and 0.23 µM for the remaining replicate, C) 4.0 and 3.8 µM and 0.22 and 0.5 µM, D) 4 and 3 µM and 0.22 and 0.5 µM, respectively, from left to right. […]
# R4 = test: Indicator displacement assay with host:LCG reporter pair, guest R4; format: binding; conditions: association constant, competitive dye displacement with LCG, 5 mM phosphate buffer pH 7.3, mean ± SD of triplicate
# Description: as §1, §4, §5, §6, §7, §8
# hexaarginine (R6) = test: Indicator displacement assay with host:LCG reporter pair, guest R6; format: binding; conditions: association constant, competitive dye displacement with LCG, 5 mM phosphate buffer pH 7.3; only the lower limit can be estimated
# Description: as §1
# Figure 2 (A) Fluorescence titration of the lucigenin dye (LCG, 1.5 μM) with increasing concentrations of E-2 in water (5 mM phosphate buffer, pH 7.3). […]
# as §2, §3
# [1] = Carboxyfluorescein (CF) dye efflux assay, counterion-activated peptide transport; format: biochemical; conditions: for CF transport out of the liposomes on addition of peptide alone: peptide 4 µM, no activator, LUV 15 µM lipid with 50 mM CF encapsulated
# Procedure: Dynamic light scattering (DLS) control experiments also confirmed liposome integrity under the experimental conditions employed in the different membrane transport assays, which ruled out potential membrane disruption interferences (Figure S34). Established dye efflux assays were performed using the carboxyfluorescein (CF) dye encapsulated at self-quenching concentrations in egg phosphatidylcholine large unilamellar vesicles (EYPC-LUV⊃CF).[26],[27],[29],[45] In these experiments, the fractional release of trapped CF (or fractional transport activity, Y), triggered by the addition of counterion activators and peptides, is monitored by time-resolved fluorescence spectroscopy and calibrated by the addition of Triton X-100 (Figure S35).
# The studies were performed with both 1 and 2 in the E and Z configurations in the presence of fixed concentrations of liposomes and cationic peptides. […] Likewise, the addition of peptides alone or nonbinding anionic peptides in the presence of calixarene activators also results in unmodified fluorescence signal, confirming that the formation of the calixarene–peptide complex is critical to activate the transport process. […] This approach retrieves the Ymax (i.e., maximal CF release relative to liposome lysis after the addition of Triton X-100) and EC50 (i.e., the effective counterion activator concentration required to reach Ymax/2) as the relevant parameters to measure the efficiency of the counterion activators.
# 10 mg of L-α-phosphatidylcholine (95%) (Egg, Chicken) were dissolved in 1 ml of chloroform. The solution was evaporated under a nitrogen stream, under rotation, to form a thin lipid film in the bottom of the flask. This film was left to dry under vacuum for a minimum of 1h. After drying the maximum of the solvent from the solution, 1 ml of the solution to incorporate (CF 50 mM in 5 mM phosphate buffer for EYPC-LUV⊃CF and only phosphate buffer 5 mM pH 7.4, for the LUVs with no encapsulation) was added to the thin film and the lipids were left to resuspend under agitation, in a 40 °C bath, for 30 min. The resuspended lipid mixture was then submitted to 10 freeze-thaw cycles and extruded 23 times through a 100 nm membrane, to obtain uniform, monodisperse liposomes with high encapsulation of the added solution. The liposomes were then separated from the molecules that were not encapsulated by size-exclusion chromatography, with Sephadex G25 (V = 37 ml), obtaining two fractions, one with high turbidity and a clear one, corresponding to the encapsulated and free sensor, respectively. The samples were then analyzed by Dynamic Light Scattering (DLS) to determine the average size of the liposomes in solution and their size distribution.
# All assays were done up to 48h after the preparation of the vesicles to ensure their integrity and majority of CF still encapsulated.
# EC50 and Ymax calculation. For the measurement of 1 and 2’s effectiveness as a counterion activators of polyarginine transport, dye efflux assays were executed at several counterion activator concentrations, while maintaining the concentration of peptide and LUV fixed as indicated in the respective figures.
# For the dye efflux assays, CF emission was followed throughout the assay, with consecutive additions of the elements of the solution – the initial solution presented only the vesicles at a fixed concentration. A counterion activator aliquot is then added according to the concentration to be tested and the emission is measured to confirm that CF remains encapsulated; some counterion activators can act as detergents at sufficient concentrations. Finally, the peptide in question is added and fluorescence spectra are measured […]
# until the emission stabilizes and a maximum of release is reached. If the counterion activator has the capacity to activate the transport, CF should be co-transported to the exterior of the liposome with the influx of the counterion-peptide complex. Finally, Triton X-100 is added to the solution to dissolve the […]
# [2] = Photochemical characterisation (UV–vis absorption, 1H NMR) and thermal Z→E isomerization; format: physicochemical
# Description: The photochromic properties of 1 and 2 were investigated in diluted aqueous solution by UV–vis absorption spectroscopy and in CD3OD by ^1H NMR.
# On the other hand, irradiation of the Z-forms at λirr = 500 nm originates a photostationary state (PSS) composed of 70 and 80% of E-1 (Φ1Z → E = 0.6) and E-2 (Φ2Z → E = 0.5), respectively (Figure 1 and Figure S23). As generally observed for other azobenzene photoswitches,[42] the E isomers can be quantitatively recovered in the dark through the thermal Z → E isomerization, with 1 and 2 presenting activation energies of 215 and 93 kJ/mol, respectively (Figures S24 and S25).
smiles,measurement,setting,value
"O=S(=O)(O)c1cc2c(O)c(c1)Cc1cc(S(=O)(=O)O)cc(c1O)Cc1cc(S(=O)(=O)O)cc(c1O)Cc1cc(S(=O)(=O)O)cc(c1O)C2 [SC4, sulfonatocalix[4]arene, reference compound]",Apparent affinity constant K for R8,R8,>1 × 10^9 ^a M^–1
same,Apparent affinity constant K for R3,R3,(5.5 ± 0.3) × 10^6 M^–1
same,Apparent affinity constant K for R4,R4,(2.7 ± 0.4) × 10^8 M^–1
same,Apparent affinity constant K for R6,hexaarginine (R6),>1 × 10^9 ^a M^–1
"N=C(N)NCCC[C@H](NC(=O)[C@H](CCCNC(=N)N)NC(=O)[C@H](CCCNC(=N)N)NC(=O)[C@H](CCCNC(=N)N)NC(=O)[C@H](CCCNC(=N)N)NC(=O)[C@@H](N)CCCNC(=N)N)C(N)=O [R6, hexaarginine, reference compound]",CF transport out of the liposomes on addition of peptide alone,[1],did not activate the transport of CF
CCCCc1ccc(N=Nc2ccc(OCCCOc3c4cc(S(=O)(=O)[O-])cc3Cc3cc(S(=O)(=O)[O-])cc(c3O)Cc3cc(S(=O)(=O)[O-])cc(c3O)Cc3cc(S(=O)(=O)[O-])cc(c3O)C4)cc2)cc1.[Li+].[Li+].[Li+].[Li+] [compound 2],Activation energy of thermal Z → E isomerization,[2]; in the dark,22.2 kcal/mol
same,Conversion of the E isomer into the Z-form,[2]; irradiation at 366 nm,quantitative conversion
same,Photoisomerization quantum yield Φ E → Z,"[2]; irradiation at 366 nm, diluted aqueous solution",0.4
same,Photoisomerization quantum yield Φ Z → E,[2]; irradiation at 500 nm,0.5
same,CF fluorescence signal (vesicle leakage) on addition of counterion activator alone,"[1]; in the absence of peptides, EYPC-LUV⊃CF",does not affect the intensity of the fluorescence signal
"N=C(N)NCCC[C@H](NC(=O)[C@H](CCCNC(=N)N)NC(=O)[C@H](CCCNC(=N)N)NC(=O)[C@H](CCCNC(=N)N)NC(=O)[C@H](CCCNC(=N)N)NC(=O)[C@H](CCCNC(=N)N)NC(=O)[C@H](CCCNC(=N)N)NC(=O)[C@@H](N)CCCNC(=N)N)C(N)=O [R8, reference compound]",CF transport out of the liposomes on addition of peptide alone,[1],did not activate the transport of CF
